Tests used:
Assay in all cases: relative viability (nuclei count vs DMSO), 5 days (fraction); higher = more cells survive
[1] = compound: CN(c1ncccc1CNc1nc(Nc2ccc3c(c2)CC(=O)N3)ncc1C(F)(F)F)S(C)(=O)=O + COc1cc2c(Oc3ccc(NC(=O)C4(C(=O)Nc5ccc(F)cc5)CC4)cc3F)ccnc2cc1OCCCN1CCOCC1 [Foretinib] (partner 0.25 µM)
Summary of the method: (§1)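 Relative viability equals treated-well nuclei counts divided by vehicle-well nuclei counts. Counts came from 4× images of lung cancer cell lines grown in 1536-well plates for 5 days after pin-tool dosing on the day after seeding. Dosing used one drug alone or a fixed anchor-drug dose plus five library-drug doses (not always all listed) in √10 steps, and values are medians of duplicate plates.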

[2] = compound: CN(c1ncccc1CNc1nc(Nc2ccc3c(c2)CC(=O)N3)ncc1C(F)(F)F)S(C)(=O)=O + O=C(CCCCCCC(=O)Nc1ccccc1)NO [Vorinostat] (partner 1 µM)
Summary of the method: as §1

[3] = compound: CN(c1ncccc1CNc1nc(Nc2ccc3c(c2)CC(=O)N3)ncc1C(F)(F)F)S(C)(=O)=O + CS(=O)(=O)N1CCN(Cc2cc3nc(-c4cccc5[nH]ncc45)nc(N4CCOCC4)c3s2)CC1 [Pictilisib] (partner 1 µM)
Summary of the method: as §1

[4] = compound: CN(c1ncccc1CNc1nc(Nc2ccc3c(c2)CC(=O)N3)ncc1C(F)(F)F)S(C)(=O)=O + NC(=O)Nc1cc(-c2cccc(F)c2)sc1C(=O)N[C@H]1CCCNC1 [AZD7762] (partner 0.2 µM)
Summary of the method: as §1

Cell Line	relative viability ([1]; first compound 0.01 µM)	relative viability ([1]; first compound 0.03162 µM)	relative viability ([1]; first compound 0.1 µM)	relative viability ([1]; first compound 0.3162 µM)	relative viability ([1]; first compound 1 µM)	relative viability ([2]; first compound 0.01 µM)	relative viability ([2]; first compound 0.03162 µM)	relative viability ([2]; first compound 0.1 µM)	relative viability ([2]; first compound 0.3162 µM)	relative viability ([2]; first compound 1 µM)	relative viability ([3]; first compound 0.01 µM)	relative viability ([3]; first compound 0.03162 µM)	relative viability ([3]; first compound 0.1 µM)	relative viability ([3]; first compound 0.3162 µM)	relative viability ([3]; first compound 1 µM)	relative viability ([4]; first compound 0.01 µM)	relative viability ([4]; first compound 0.03162 µM)	relative viability ([4]; first compound 0.1 µM)	relative viability ([4]; first compound 0.3162 µM)	relative viability ([4]; first compound 1 µM)
NCI-H2228	1	0.995	0.749	0.927	0.811	0.42	0.579	0.758	0.882	0.547	0.422	0.453	0.376	0.358	0.294	–	–	–	–	–
NCI-H2087	1.04	1.03	1.02	1.2	0.974	0.722	0.872	0.901	0.613	0.589	0.852	0.77	0.978	0.914	0.951	1.28	1.3	1.32	1.35	1.2
LU99A	0.838	0.873	0.841	0.947	0.929	0.531	0.526	0.571	0.635	0.531	0.314	0.357	0.342	0.373	0.335	0.377	0.507	0.509	0.572	0.476
NCI-H1355	0.937	1.01	1	0.884	0.907	0.67	0.708	0.676	0.589	0.623	0.399	0.474	0.346	0.432	0.381	0.866	0.864	0.944	0.732	0.697
NCI-H520	0.851	0.744	0.723	0.839	0.722	0.678	0.925	0.693	0.746	0.754	0.285	0.386	0.322	0.277	0.379	–	–	–	–	–
NCI-H661	1.01	1.04	0.989	0.993	0.92	0.763	0.84	0.744	0.786	0.759	0.578	0.335	0.405	0.378	0.383	–	–	–	–	–
NCI-H650	1.02	0.953	0.935	0.796	0.853	0.454	0.565	0.557	0.415	0.303	0.961	1.15	0.671	0.639	0.842	0.909	1.08	0.822	0.948	0.995
NCI-H647	1.18	1.04	1.14	1.1	1.22	0.473	0.742	0.476	0.577	0.631	0.529	0.365	0.38	–	0.594	0.383	0.515	0.611	0.566	0.471
SW 1573	0.961	0.856	0.884	1.16	0.975	0.832	1.11	0.696	0.992	0.588	0.584	0.52	0.422	0.573	0.454	–	–	–	–	–
COR-L23	1.07	1.15	0.937	0.921	0.851	0.471	0.392	0.327	0.305	0.295	0.793	0.824	0.922	0.874	0.585	–	–	–	–	–
SK-LU-1	0.823	0.845	0.712	0.815	0.61	0.6	0.693	0.722	0.711	0.594	0.519	0.53	0.473	0.554	0.423	–	–	–	–	–
NCI-H1650	1.12	1.25	1.38	1.19	0.971	0.682	0.513	0.581	0.586	0.69	0.557	0.676	0.609	–	0.581	–	–	–	–	–
UMC-11	0.972	1.14	0.953	1.01	0.823	0.417	0.363	0.314	0.331	0.229	0.759	0.843	0.793	0.847	0.708	–	–	–	–	–
SK-MES-1	0.905	0.919	0.817	1.01	0.868	1.1	1.13	1.09	1.08	0.951	0.401	0.322	0.293	0.311	0.367	–	–	–	–	–
NCI-H2009	1.17	1.22	1.27	1.27	0.965	0.724	0.838	0.693	0.75	0.685	0.793	0.91	0.745	0.95	0.958	–	–	–	–	–
NCI-H2023	0.791	0.715	0.731	0.752	0.642	0.636	0.826	0.666	0.709	0.487	0.265	0.329	0.199	0.225	0.2	–	–	–	–	–
COR-L 105	1	1.27	0.989	0.848	0.773	0.813	0.865	0.873	0.855	0.619	0.435	0.395	0.383	0.427	0.426	–	–	–	–	–
NCI-H1563	0.996	0.907	1.04	0.899	0.863	–	–	–	–	–	0.602	0.629	0.657	0.722	0.662	–	–	–	–	–
EBC-1	0.107	0.119	0.102	0.105	0.0994	–	–	–	–	–	0.365	0.325	0.391	0.36	0.305	–	–	–	–	–
Calu-6	0.936	0.989	0.808	0.955	0.812	–	–	–	–	–	0.926	0.986	0.929	0.874	0.845	–	–	–	–	–
HCC-44	–	–	–	–	–	1.1	1.06	1.13	1.14	1.1	0.478	0.623	0.617	0.678	0.658	0.948	1.02	0.969	0.967	0.964
